Assay [1] relates to Salmonella typhimurium. Briefly: Antimutagenic activity against sodium azide-induced revertant colonies in Salmonella typhimurium TA100 assessed as number of revertant colonies measured pretreatment at 18 uM (reference value: 1968 +/- 46.9) in absence of mammalian S9 fraction. In kind it is functional, Salmonella enterica subsp. enterica serovar Typhimurium.
The test system of assay [2] is Salmonella typhimurium. Nature of the assay: Antimutagenic activity against sodium azide-induced revertant colonies in Salmonella typhimurium TA100 assessed as number of revertant colonies measured pretreatment at 180 uM (reference value: 1968 +/- 46.9) in absence of mammalian S9 fraction. In kind it is functional, Salmonella enterica subsp. enterica serovar Typhimurium.

The test system of assay [3] is Salmonella typhimurium. Briefly: Antimutagenic activity against sodium azide-induced revertant colonies in Salmonella typhimurium TA100 assessed as number of revertant colonies measured cotreatment at 9 uM (reference value: 1588 +/- 55.6) in absence of mammalian S9 fraction. The format is functional, Salmonella enterica subsp. enterica serovar Typhimurium.
For assay [4], the system named is Salmonella typhimurium. Nature of the assay: Antimutagenic activity against sodium azide-induced revertant colonies in Salmonella typhimurium TA100 assessed as number of revertant colonies measured cotreatment at 90 uM (reference value: 1588 +/- 55.6) in absence of mammalian S9 fraction. The format is functional, Salmonella enterica subsp. enterica serovar Typhimurium.

For assay [5], the system named is Salmonella typhimurium. Briefly: Antimutagenic activity against sodium azide-induced revertant colonies in Salmonella typhimurium TA100 assessed as number of revertant colonies measured post-treatment at 9 uM (reference value: 1909 +/- 29.7) in absence of mammalian S9 fraction. The format is functional, Salmonella enterica subsp. enterica serovar Typhimurium.
Assay [6] relates to Salmonella typhimurium. Nature of the assay: Antimutagenic activity against sodium azide-induced revertant colonies in Salmonella typhimurium TA100 assessed as number of revertant colonies measured post-treatment at 18 uM (reference value: 1909 +/- 29.7) in absence of mammalian S9 fraction. The format is functional, Salmonella enterica subsp. enterica serovar Typhimurium.
The test system of assay [7] is Salmonella typhimurium. Briefly: Antimutagenic activity against sodium azide-induced revertant colonies in Salmonella typhimurium TA100 assessed as number of revertant colonies measured post-treatment at 90 uM (reference value: 1909 +/- 29.7) in absence of mammalian S9 fraction. In kind it is functional, Salmonella enterica subsp. enterica serovar Typhimurium.
The subject of assay [8] is Escherichia coli. Briefly: Antimutagenic activity against methyl methansulfonate-induced revertant colonies in Escherichia coli WP2uvrA assessed as number of revertant colonies measured pretreatment at 9 uM (reference value: 466.7 +/- 40.4) in absence of mammalian S9 fraction. In kind it is functional.
Assay [9] deals with Escherichia coli. Briefly: Antimutagenic activity against methyl methansulfonate-induced revertant colonies in Escherichia coli WP2uvrA assessed as number of revertant colonies measured pretreatment at 18 uM (reference value: 466.7 +/- 40.4) in absence of mammalian S9 fraction. In kind it is functional.
Assay [10] relates to Escherichia coli. Briefly: Antimutagenic activity against methyl methansulfonate-induced revertant colonies in Escherichia coli WP2uvrA assessed as number of revertant colonies measured pretreatment at 180 uM (reference value: 466.7 +/- 40.4) in absence of mammalian S9 fraction. The format is functional.
Assay [11] concerns Escherichia coli. Briefly: Antimutagenic activity against methyl methansulfonate-induced revertant colonies in Escherichia coli WP2uvrA assessed as number of revertant colonies measured cotreatment at 18 uM (reference value: 485.3 +/- 17.5) in absence of mammalian S9 fraction. In kind it is functional.
Assay [12] relates to Escherichia coli. Nature of the assay: Antimutagenic activity against methyl methansulfonate-induced revertant colonies in Escherichia coli WP2uvrA assessed as number of revertant colonies measured cotreatment at 90 uM (reference value: 485.3 +/- 17.5) in absence of mammalian S9 fraction. The format is functional.
Assay [13] has as its system Escherichia coli. Briefly: Antimutagenic activity against methyl methansulfonate-induced revertant colonies in Escherichia coli WP2uvrA assessed as number of revertant colonies measured cotreatment at 180 uM (reference value: 485.3 +/- 17.5) in absence of mammalian S9 fraction. The format is functional.
Assay [14] has as its system Escherichia coli. Briefly: Antimutagenic activity against methyl methansulfonate-induced revertant colonies in Escherichia coli WP2uvrA assessed as number of revertant colonies measured post-treatment at 900 uM (reference value: 726.7 +/- 12.7) in absence of mammalian S9 fraction. In kind it is functional.
Assay [15] relates to Escherichia coli. Briefly: Antimutagenic activity against 2-aminoanthracene-induced revertant colonies in Escherichia coli WP2uvrA assessed as number of revertant colonies measured post-treatment at 180 uM (reference value: 308 +/- 4) in presence of mammalian S9 fraction. The format is functional.
Assay [16] relates to Salmonella typhimurium. Nature of the assay: Antimutagenic activity against 4-nitroquinoline N-oxide-induced revertant colonies in Salmonella typhimurium TA98 assessed as inhibition of mutagenicity measured at 900 uM. The settings on record: Salmonella enterica. The format is functional, Salmonella enterica subsp. enterica serovar Typhimurium.
For assay [17], the system named is Salmonella typhimurium. Nature of the assay: Antimutagenic activity against 1-nitropyrene-induced revertant colonies in Salmonella typhimurium TA98NR assessed as inhibition of mutagenicity measured at 90 to 180 uM. The format is functional, Salmonella enterica subsp. enterica serovar Typhimurium.

The record followed here is ChEMBL document CHEMBL3351515, “α-Hexylcinnamaldehyde inhibits the genotoxicity of environmental pollutants in the bacterial reverse mutation assay” (2014).

Some results are limits rather than exact numbers.

In general, inhibition refers to the share of the control response that was lost under treatment. Turning to `CCCCCC/C(C=O)=C\c1ccccc1`, the Activity in assay [1] is 1861; in assay [2], 1797; in assay [3], 1519; in [4], 1477; in [5] it was 1888; in assay [6] it was 1867. For the same compound, the Activity in assay [7] is reported as 1803; in assay [8], 458.7; in assay [9], 451.3; in assay [10], 376; in assay [11] it was 485.3; in [12], 466.7. The Activity amounted to 448 in assay [13], 474 in assay [14] and 302.7 in [15]. The inhibition at 900 µM in assay [16] was greater than 40%. In [17], the “inhibition (INH)” value came out at 25%.
